Measured values: patent US20240398775A1, “PHARMACEUTICAL COMPOSITION FOR USE IN TREATING COGNITIVE DECLINE OR FOR USE IN TREATING OVERWEIGHT OR OBESITY” (University of the Ryukyus, priority 2021, published 2024)

Columns and labels:
Aβ = Aβ staining of neurosphere culture; format: cell-based, mouse; conditions: neurospheres from NL-G-F(−/−) mice, fourth day of culture, perampanel group
[1] = test system: Ca2+ permeable AMPAR (CP-AMPAR); experiment: Ca2+ imaging (Fluo-3) of hippocampal brain slices, AMPA + CTZ application (CP-AMPA reaction); format: cell-based, mouse
GluA1 = experiment: BS3 crosslinking assay / Western blot of GluA1 subunit; format: in vivo, mouse; conditions: HFD-fed mice treated with PER, n=4; HFD gave 3-fold increase vs CD
Protocol: Crosslinking using the BS^3 procedure carried out here was carried out based on previously described methods (60). Hippocampal slices of 17 to 18 week old male C57BL/6J background mice (CD, HFD, and HFD with PER treatment) or 12 to 13 week old ob/ob mice (ob/ob, and ob/ob with PER treatment) were prepared as previously reported (56, 57). Hippocampal slices were prepared and collected, and then CA1, CA2, CA3, DG, and EC regions were separated from the hippocampal slices using a dissection knife. […] The total protein concentration of the lysate was measured using the Lowry method (61). […] BS^3 samples were analyzed by SDS-PAGE directly without purification, and surface and intracellular bands were measured in the same lane, thus no normalization was required and sample throughput was improved. […] Membranes were incubated with HRP-labeled anti-rabbit IgG (1:3,000, Cell Signaling Technology, Danvers, MA, USA) for 30 min and extensively washed again with TBS-T. After soaking the membrane in the chemiluminescence detection substrate Chemi-Lumi One (Nacalai Tesque, Tokyo, Japan) for 1 min, luminescence was detected using a LuminoGraph1 imaging system (Atto, Tokyo, Japan). The surface and intracellular bands of each lane were analyzed using a CS Analyzer (Atto, Tokyo, Japan). […]

[2] = HFD-fed mice with oral PER 5 mg/kg/day, AMPA 100 μM + CTZ 100 μM, N = 5

Compound: N#Cc1ccccc1-c1cc(-c2ccccn2)cn(-c2ccccc2)c1=O [PER, 3-(2-cyanophenyl)-5-(2-pyridyl)-1-phenyl-1,2-dihydropyridine-2-one]
- Aβ staining of culture (Aβ): decrease in Aβ
- increase in [Ca2+]i via pathological AMPARs [1]: completely disappeared
- inhibitory effect on CP-AMPAR in EC, CA1, CA2, CA3 and DG [1]: significant inhibitory effect
- CP-AMPA reaction CA1 (maximum value of NF525) [1, 2]: 1.00 ± 0.01
- CP-AMPA reaction CA2 (maximum value of NF525) [1, 2]: 1.00 ± 0.02
- CP-AMPA reaction CA3 (maximum value of NF525) [1, 2]: 1.00 ± 0.01
- CP-AMPA reaction DG (maximum value of NF525) [1, 2]: 1.02 ± 0.01
- CP-AMPA reaction EC (maximum value of NF525) [1, 2]: 1.05 ± 0.05
- elevation of [Ca2+]i via AMPAR ([1]; acute slices from HFD-fed mice, 100 μM PER applied): completely disappeared
- transmission via AMPAR ([1]; hippocampal slices from mice fed HFD and PER 5 mg/kg/day orally by hydrogel): normalize transmission via AMPAR
- GluA1 in CA3 (BS3 crosslinking) (GluA1): reduced GluA1 to basal levels
